Measurements: paper PMC3913017, “A Method for Fast Assessment of OP/CB Exposure in the Japanese Quail (Coturnix coturnix japonica) Using Combined Esterases Enzyme Activity as Biomarkers” (Enzyme Research, 2014)
Where two headings read alike, the source gives them in different places.

Columns and labels:
[1] = target: T1, cholinesterase (ChE) in blood plasma (Coturnix japonica, UniProt A0A8C2YFF6); test: Substrate hydrolysis and kinetics, blood plasma ChE; type: biochemical, Japanese quail (Coturnix coturnix japonica); details: for reaction rate of substrate hydrolysis, plasma: blood plasma, 1 mM AcTChI, BuTChI, 2 mM PrTChI
Description: (§1) To obtain plasma, 1 mL blood samples were added to anticoagulant (heparin, 3.7 mg, final concentration 0.1%) in 5 mL centrifuge tubes. Plasma was separated by centrifugation at 5000 g for 10 min. The liver was removed using a scalpel, cut into small pieces (2-3 mm^3), and rinsed until the blood was fully removed. The liver was then placed on ice in 5 mL tubes (5 mm internal diameter) and homogenized using a mechanically driven homogenizer with phosphate buffer (0.1 M, pH 8) with a 1 : 10 ratio (w/v) of 1 part of liver tissue to 9 parts of buffer and a speed of 10000 rpm. Homogenisation required 3 min; after every one min or so of homogenization, the mixture was rested for 30 s to allow cooling. The homogenate was then centrifuged at 5000 g for 10 min and the supernatant fraction was retained and used for subsequent analyses.
(§2) Enzyme activity was determined at room temperature 25°C by the Ellman method [18], and using thioacetate (PSA) for measuring CbE enzyme activity or by using thiocholine (e.g., AcTChI, BuTChI, or PrTChI substrate) for measuring ChE enzyme activities [19]. […] Substrate solutions (final concentration 2 mM for PrTChI and PSA, while 1 mM for AcTChI and BuTChI) were prepared and used on the same day and kept on ice during use. Enzyme activities were calculated using an extinction coefficient of 13.6 mM^−1 cm^−1 for TNB [21] and are expressed as units (1 U ≡ 1 μmol ≡ 1000 nmol of substrate hydrolysed per min) per g wet weight of liver homogenate, while for plasma they are expressed as U/mL [2]. All measurements in this paper were carried out in duplicate.

[2] = system: cholinesterase (ChE) in liver homogenate; test: Substrate hydrolysis, liver homogenate ChE; type: biochemical, Japanese quail (Coturnix coturnix japonica); details: 1 mM AcTChI, BuTChI, 2 mM PrTChI
Description: as §1
(§3) Enzyme activity was determined at room temperature 25°C by the Ellman method [18], and using thioacetate (PSA) for measuring CbE enzyme activity or by using thiocholine (e.g., AcTChI, BuTChI, or PrTChI substrate) for measuring ChE enzyme activities [19]. […] Enzyme activities were calculated using an extinction coefficient of 13.6 mM^−1 cm^−1 for TNB [21] and are expressed as units (1 U ≡ 1 μmol ≡ 1000 nmol of substrate hydrolysed per min) per g wet weight of liver homogenate, while for plasma they are expressed as U/mL [2]. […]

[3] = target: carboxylesterase (CbE) in blood plasma; test: In vitro inhibition of blood plasma CbE by CB/OP pesticides (Ellman, PSA substrate); type: biochemical, Japanese quail (Coturnix coturnix japonica); details: for IC50: substrate PSA, 30 min 25°C, mean ± SE, read-out: Half maximal inhibitory concentration (IC50), PSA
Description: To obtain plasma, 1 mL blood samples were added to anticoagulant (heparin, 3.7 mg, final concentration 0.1%) in 5 mL centrifuge tubes. Plasma was separated by centrifugation at 5000 g for 10 min.
as §2
Then esterases enzyme activity was measured as explained in the above section. For the measurement of half maximal inhibitory concentrations (IC50), samples were inhibited for 30 min at room temperature 25°C with appropriate concentration of CB or OP pesticide compounds, depending on preliminary range finding tests. Controls that were incubated with phosphate buffer pH 8.0 were included. Then the enzyme activity was determined as described above. Then the data were fitted with nonlinear regression analysis using a single exponential decay by SigmaPlot 11 (Systat software, Inc.).

[4] = system: carboxylesterase (CbE) in blood plasma; test: Inhibition rate constant (ki), blood plasma CbE (PSA substrate); type: biochemical, Japanese quail (Coturnix coturnix japonica); details: 4 mM methomyl, 2 mM parathion, malathion, trichlorfon, 1–60 min, 25°C, mean ± SE
Description: Blanks were also run at each selected inhibitor for each based on the absorbance tested. Then the enzyme activity was determined as described in above. The decrease in esterases enzyme activity over different times (1–60 min) at room temperature 25°C was detected. Then the data of inhibition time courses at different times after inhibition was fitted with a single exponential decay using SigmaPlot 11. However, the percentage inhibition was calculated from the ratio between the activity of an exposed sample and unexposed controls by the following formula: (1) % Inhibition =[…].

[5] = system: quails; details: cited from earlier work
[6] = target: T1, cholinesterase (ChE) in blood plasma; test: Inhibition rate constant (ki), blood plasma ChE (thiocholine substrates); details: for ki value, range: blood plasma, range over the substrates AcTChI, BuTChI, PrTChI and PSA
Description: as §2
Controls that were incubated with phosphate buffer pH 8.0 were included when appropriated. Blanks were also run at each selected inhibitor for each based on the absorbance tested. Then the enzyme activity was determined as described in above. The decrease in esterases enzyme activity over different times (1–60 min) at room temperature 25°C was detected. Then the data of inhibition time courses at different times after inhibition was fitted with a single exponential decay using SigmaPlot 11. However, the percentage inhibition was calculated from the ratio between the activity of an exposed sample and unexposed controls by the following formula: (1) % Inhibition =Esterases enzyme activity with inhibitor/Esterases enzyme activity without inhibitor×100.

[7] = system: carboxylesterase (CbE) in blood plasma; test: Substrate hydrolysis, blood plasma CbE (PSA); type: biochemical, Japanese quail (Coturnix coturnix japonica); details: 2 mM PSA
Description: as §1, §3

[8] = system: carboxylesterase (CbE) in liver homogenate; test: Substrate hydrolysis and kinetics, liver homogenate CbE (PSA); type: biochemical, Japanese quail (Coturnix coturnix japonica)
Description: as §1, §2

[9] = target: T1, cholinesterase (ChE) in blood plasma; test: In vivo oral exposure 48 h, plasma ChE inhibition; set-up: species or system Japanese quail (Coturnix coturnix japonica)
Description: The extent of inhibition of esterases enzyme activity was also assessed following in vivo exposure of test of quail by oral dosing (n = 15) were exposed to test solutions of parathion, malathion, methomyl, trichlorfon, or control (water) in cages. […] Samples were prepared and assayed as explained in the above section.

[10] = system: ChE enzyme; test: Incubation with general serine esterase inhibitor, ChE activity; type: biochemical, Japanese quail (Coturnix coturnix japonica); details: 3 mM inhibitor
[11] = system: CbE enzyme; test: Incubation with general serine esterase inhibitor, CbE activity; type: biochemical, Japanese quail (Coturnix coturnix japonica); details: 3 mM inhibitor
[12] = read-out: inhibition of control activity

T1 sequence (A0A8C2YFF6 30-604): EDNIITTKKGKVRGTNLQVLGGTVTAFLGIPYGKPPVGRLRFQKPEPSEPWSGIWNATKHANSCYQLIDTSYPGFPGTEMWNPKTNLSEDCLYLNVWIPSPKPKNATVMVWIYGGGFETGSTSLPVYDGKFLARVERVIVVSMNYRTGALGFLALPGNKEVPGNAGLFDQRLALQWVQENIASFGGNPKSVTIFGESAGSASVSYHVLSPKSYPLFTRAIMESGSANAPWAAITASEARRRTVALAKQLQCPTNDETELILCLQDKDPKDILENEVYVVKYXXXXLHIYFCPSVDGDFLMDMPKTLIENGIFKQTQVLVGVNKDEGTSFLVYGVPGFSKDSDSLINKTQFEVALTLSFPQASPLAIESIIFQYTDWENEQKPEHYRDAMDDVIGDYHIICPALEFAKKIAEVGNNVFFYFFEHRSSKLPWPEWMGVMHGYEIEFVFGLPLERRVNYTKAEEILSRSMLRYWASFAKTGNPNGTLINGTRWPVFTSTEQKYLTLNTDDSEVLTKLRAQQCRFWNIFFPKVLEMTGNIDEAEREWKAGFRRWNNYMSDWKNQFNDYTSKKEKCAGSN

CCCC(=O)SCC[N+](C)(C)C.[I-] [BuTChI, (2-mercaptoethyl) trimethylammonium iodide butyrate]
Vmax ([1]; blood plasma ChE, Figure 4(a)): 1011 nmol/min/mL
Km ([1]; blood plasma ChE, substrate 0.125–2 mM, read-out: Km (apparent Michaelis constant)): 394 µM
reaction rate of substrate hydrolysis, plasma [1]: 1321.5 nmol/min/mL
reaction rate of substrate hydrolysis, liver homogenate [2]: 304.5 nmol/min/g

CCOC(=O)CC(SP(=S)(OC)OC)C(=O)OCC (stereo not shown) [Malathion, S-1,2-bis(ethoxycarbonyl) ethyl O,O-dimethyl phosphorodithioate]
IC50 [3]: 910 ± 400 µM
Rate constant inhibition (ki), PSA [4]: 175.6 ± 16.0 × 10^−3 min^−1
median lethal dose (LD50) ([5]; oral, quails): 400 mg/kg
ki value, range [6]: 0.0358 to 0.1756 min⁻¹
inhibition at 2000 µM [6, 12]: 83 to 99%

CNC(=O)ON=C(C)SC [Methomyl, S-methyl-N((methylcarbamoyl)oxy) thioacetimidate]
CbE enzyme activity sensitivity to inhibition ([3]; in vitro, PSA, Figure 10(a)): insensitive to the CB methomyl except at high concentrations
IC50 [3]: 610 ± 20 µM
Rate constant inhibition (ki), PSA [4]: 345.3 ± 12.4 × 10^−3 min^−1
median lethal dose (LD50) ([5]; in vivo, po): 24.2 mg/kg
ki value, range [6]: 0.1224 to 0.5674 min⁻¹
inhibition at 4000 µM [6, 12]: 83 to 99%

CC(=O)Sc1ccccc1 [PSA, thiophenyl acetate]
reaction rate of substrate hydrolysis, plasma [7]: 68.9 nmol/min/mL
Vmax ([8]; liver CbE, Figure 4(b)): 1195 nmol/min/g
Km ([8]; liver CbE, substrate 0.25–4 mM, read-out: apparent Km): 713 µM
reaction rate of substrate hydrolysis, liver homogenate ([8]; liver homogenate, 2 mM PSA): 1.765 µmol/min/g

CCOP(=S)(OCC)Oc1ccc([N+](=O)[O-])cc1 [Parathion, O,O-diethyl O-(4-nitrophenyl) phosphorothioate]
IC50 [3]: 220 ± 60 µM
Rate constant inhibition (ki), PSA [4]: 453.2 ± 5.6 × 10^−3 min^−1
median lethal dose (LD50) ([5]; oral, quails): 6 mg/kg
ki value, range [6]: 0.4532 to 0.8233 min⁻¹

CCC(=O)SCC[N+](C)(C)C.[I-] [PrTChI, (2-mercaptoethyl) trimethylammonium iodide propionate]
reaction rate of substrate hydrolysis, plasma [1]: 211.9 nmol/min/mL
reaction rate of substrate hydrolysis, liver homogenate [2]: 113.9 nmol/min/g

COP(=O)(OC)C(O)C(Cl)(Cl)Cl (stereo not shown) [Trichlorfon, dimethyl (2,2,2-trichloro-1-hydroxyethyl) phosphonate]
IC50 [3]: 510 ± 90 µM
Rate constant inhibition (ki), PSA [4]: 976.9 ± 8.9 × 10^−3 min^−1
inhibition at 11 mg/kg ([9]; read-out: % inhibition compared with the control, plasma, AcTChI): 12.1%
inhibition at 11 mg/kg ([9]; read-out: % inhibition compared with the control, plasma, BuTChI): 33.2%
inhibition at 11 mg/kg ([9]; read-out: % inhibition compared with the control, plasma, PrTChI): 11.7%
median lethal dose (LD50) ([5]; oral, quails): 22 mg/kg
ki value, range [6]: 0.3451 to 0.9769 min⁻¹

O=S(=O)(F)Cc1ccccc1 [phenylmethanesulfonyl fluoride]
level of ChE enzyme activity after incubation [10]: insignificant levels
level of CbE enzyme activity after incubation [11]: insignificant levels
